# “And” between values parts separate entries of the source, which are not always exact repeats. Equal entries are not always repeated.
# Legend:
# Format in all cases: in vivo, human
# cold = experiment: Analysis of cold cases, composition of Example 8 vs vitamin C and placebo (Experimental Example 3)
# Source text: The present experiment example analyzed cold cases in the experiment group who took the composition of Example 8, and the control groups I and II who took vitamin C and placebo (wheat flour) respectively, throughout 40 months from 1999 to 2003. The intake is the same as 1 g after meal. Here, ‘cold’ is defined to show high fever or slight fever, sore throat, dry cough, headache, myalgia, and chill.
# As a result of the above experiment, the average of cold case a year per person in the experiment group who took the present composition, the control group I who took vitamin C, and the control group II who took placebo was 0, 1.5, and 5.6, respectively, all of which are statistically significant difference under 0.05% of significance probability. In sum, the composition of the present invention accomplished 100% of cold prevention effect.
# IL-10 = experiment: Cytokine in serum by ELISA (Experimental Example 4); conditions: samples from persons after 40 months of intake
# Method: (§1) After such cultivating, the plates were washed, biotynilated secondary antibody was filled in each plate by […], and streptavidin ALP was added thereto, which was cultivated at 37° C. for 30 minutes. After washing the plates again, alkaline phosphatase PNPP was added thereto, and the plates were cultivated for 30 minutes and measured with ELISA reader at 405 nm.
# IL-12 = experiment: as above; conditions: samples from persons after 40 months of intake; 10 samples
# Method: as §1
# IL-2 = experiment: as above; conditions: samples from persons after 40 months of intake; 10 samples
# Method: as §1
# IL-4 = experiment: as above; conditions: samples from persons after 40 months of intake; 10 samples
# Method: as §1
# INF-γ = experiment: as above; conditions: samples from persons after 40 months of intake; 10 samples
# Method: as §1
structure (smiles),measurement,setting,value
"O=C1O[C@H]([C@@H](O)CO)C(O)=C1O [Vitamin C, ascorbic acid]",average of cold case a year per person,"cold; 40 months, 1 g after meal",1.5
same,cold prevention effect (in words),cold; group administrating vitamin C only,some cold prevention effect
same,Frequency of cold in the control group taking vitamin C,"cold; per person (one line per subject), 1 g after meal, 40 months 1999-2003",4 (7×) and 5 (5×) and 7 and 6 (2×)
same,Cytokine in serum IL-10,IL-10,10 ± 8 pg/mL
same,Cytokine in serum IL-12,IL-12,20 ± 7 pg/mL
same,Cytokine in serum IL-2,IL-2,51 ± 19 pg/mL
same,Cytokine in serum IL-4,IL-4,0.14 ± 0.03 pg/mL
same,Cytokine in serum INF-γ,INF-γ,68 ± 12 pg/mL

# Source: patent US20070299040A1, “Composition for Preventing a Cold” (BIOTECH INSTITUTE FOR INTERNATIONAL INNOVATION, INC., priority 2004, published 2007)
